Source: US20250320205A1, “STAT6 DEGRADERS” (Gilead Sciences, Inc., priority 2024, published 2025)

Each molecule was assayed against T1, STAT6 (Homo sapiens, UniProt P42226) (assay: STAT6 Degrader Assay (HiBiT based, HeLa LgBiT clone 4.14 cells)). Details: HeLa; maximal STAT6 degradation.
T1 construct: These cells express endogenous STAT6; host or cells: HeLa LgBiT clone 4.14 (CRISPR knock-in of HiBiT into the endogenous STAT6 gene)
T1 sequence (P42226 1-847): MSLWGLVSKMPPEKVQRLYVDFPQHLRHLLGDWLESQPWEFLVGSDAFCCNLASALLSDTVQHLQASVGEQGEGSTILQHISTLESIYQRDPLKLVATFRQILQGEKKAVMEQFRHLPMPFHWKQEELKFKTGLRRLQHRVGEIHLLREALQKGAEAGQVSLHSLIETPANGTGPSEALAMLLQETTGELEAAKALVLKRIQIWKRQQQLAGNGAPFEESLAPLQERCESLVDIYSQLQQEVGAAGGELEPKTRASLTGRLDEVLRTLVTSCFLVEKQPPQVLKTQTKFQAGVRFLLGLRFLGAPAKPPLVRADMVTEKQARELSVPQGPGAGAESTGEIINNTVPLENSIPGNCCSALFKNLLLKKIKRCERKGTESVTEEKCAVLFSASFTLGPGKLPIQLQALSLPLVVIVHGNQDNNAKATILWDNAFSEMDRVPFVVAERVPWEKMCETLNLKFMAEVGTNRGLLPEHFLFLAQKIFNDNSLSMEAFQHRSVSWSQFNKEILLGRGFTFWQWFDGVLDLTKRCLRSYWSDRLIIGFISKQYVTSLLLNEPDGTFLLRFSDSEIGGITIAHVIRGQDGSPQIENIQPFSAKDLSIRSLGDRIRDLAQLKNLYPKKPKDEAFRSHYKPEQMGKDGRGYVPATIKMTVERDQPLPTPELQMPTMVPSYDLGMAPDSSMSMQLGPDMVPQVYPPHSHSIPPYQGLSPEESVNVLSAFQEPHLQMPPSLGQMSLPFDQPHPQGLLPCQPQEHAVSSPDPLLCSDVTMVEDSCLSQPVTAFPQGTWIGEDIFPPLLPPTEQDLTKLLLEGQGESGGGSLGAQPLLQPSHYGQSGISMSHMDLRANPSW
Assay type: cell-based
Description: This was a HiBit based assay. A HeLa cell line stably transfected with a small protein, LgBit (Large Bit) was obtained from Promega. These cells express endogenous STAT6. A small 11 amino acid gene sequence (HiBiT) was inserted in the STAT6 gene using CRISPR technology. Once STAT6 protein is expressed in the cells, the HiBiT sequence will bind the LgBit in the cells resulting in a functional NanoBiT protein, giving a luminescent tag to STAT6. Single cell clones were prepared and the clone 4.14 was selected for the assay based on that clone showing high luminescence, high STAT6 phosphorylation upon stimulation with IL-4, and inhibition of luminescence when cells were treated with STAT6 siRNA. HeLa LgBiT clone 4.14 cells were suspended in DMEM with 10% FCS, 1% Pen/Strep, Na-pyrovate and Hygromycin B, at a concentration of 1.25*105 cells pr mL. 5000 cells were added pr well of a 384 well plate and 20 nL of compound was added by Echo® liquid handler. NN6394A (terfenadine, a toxic compound) was added to control wells at 50 μM concentration to establish the assay window. In these wells the cells are dead which equals 100% degradation of STAT6. After 4-24 h of incubation at 37° C. under 5% CO2/95% air, 5 μL substrate (Nano-GLO®) was added to the wells and the plates were centrifuged and incubated for 0.5 h. The luminescence in the wells as a measure of non-degraded STAT6 was measured in a plate reader (BMG Pherastar FSX). The measured DC50 (in nM) was determined.

**Q.** With `CNc1ccn(-c2ccnc3c2cc(CN2CC=C(c4c(C)cc(C(=O)N5CCC(CN6CCN(c7ccc(N[C@H]8CCC(=O)NC8=O)cc7F)CC6)CC5)cc4F)CC2)n3C)c(=O)c1` (single isomer, unassigned) [Example 2g55] as the molecule, how does the Emax read?
**A.** 70 to 80%

**Q.** For `CNc1ccn(-c2ccnc3c2cc(CN2CC=C(c4c(C)cc(C(=O)N5CCC(CN6CCN(c7ccc(N[C@@H]8CCC(=O)NC8=O)cc7F)CC6)CC5)cc4F)CC2)n3C)c(=O)c1` (single isomer, unassigned) [Example 2g56], which Emax is on record?
**A.** 70 to 80%

Same assay, conditions: geometric mean across assay runs and compound batches; DC50 provided for test compounds with >80% Emax; read-out: STAT6 degradation DC50

**Q.** With `CNc1ccn(-c2ccnc3c2cc([C@H](C)N2CC=C(c4c(C)cc(C(=O)N5CCn6nc(CN7CCC(c8ccc(N[C@H]9CCC(=O)NC9=O)cc8F)CC7)cc6C5)cc4F)CC2)n3C)c(=O)c1` (single isomer, unassigned) [Example 2g16] as the molecule, how does the DC50 read?
**A.** 0.2 nM

**Q.** With `CNc1ccn(-c2ccnc3c2cc([C@H](C)N2CC=C(c4c(C)cc(C(=O)N5CCn6nc(CN7CCC(c8ccc(N[C@@H]9CCC(=O)NC9=O)cc8F)CC7)cc6C5)cc4F)CC2)n3C)c(=O)c1` (single isomer, unassigned) [Example 2g17] as the molecule, how does the DC50 read?
**A.** 0.2 nM

**Q.** How did the DC50 turn out when `Cc1cc(C(=O)N2CCC(CN3CCN(c4ccc(N[C@H]5CCC(=O)NC5=O)cc4F)CC3)CC2)cc(F)c1C1=CCN([C@@H](C)c2cc3c(-n4ccc5c(c4=O)CCN5)ccnc3n2C)CC1` (single isomer, unassigned) [Example 2g19] was run?
**A.** 4.5 nM

**Q.** Which DC50 does the source give for `Cc1cc(C(=O)N2CCC(CN3CCN(c4ccc(N[C@@H]5CCC(=O)NC5=O)cc4F)CC3)CC2)cc(F)c1C1=CCN([C@@H](C)c2cc3c(-n4ccc5c(c4=O)CCN5)ccnc3n2C)CC1` (single isomer, unassigned) [Example 2g20] here?
**A.** 6.9 nM

**Q.** `Cc1cc(C(=O)N2CCC(CN3CCN(c4ccc(N[C@H]5CCC(=O)NC5=O)cc4F)C[C@H]3C)CC2)cc(F)c1C1=CCN([C@@H](C)c2cc3c(-n4ccc5c(c4=O)CCN5)ccnc3n2C)CC1` (single isomer, unassigned) [Example 2g23] was tested. Which DC50 did it give?
**A.** 3.3 nM

**Q.** `Cc1cc(C(=O)N2CCC(CN3CCN(c4ccc(N[C@@H]5CCC(=O)NC5=O)cc4F)C[C@H]3C)CC2)cc(F)c1C1=CCN([C@@H](C)c2cc3c(-n4ccc5c(c4=O)CCN5)ccnc3n2C)CC1` (single isomer, unassigned) [Example 2g24] was tested. Which DC50 did it give?
**A.** 3 nM

**Q.** Which DC50 does the source give for `CNc1cc(=O)n(-c2ccnc3c2cc([C@H](C)N2CC=C(c4c(C)cc(C(=O)N5CCC(CN6CCN(c7ccc(N[C@@H]8CCC(=O)NC8=O)cc7F)C[C@H]6C)CC5)cc4F)CC2)n3C)cc1F` (single isomer, unassigned) [Example 2g28] here?
**A.** 10.3 nM

**Q.** How did the DC50 turn out when `CNc1cc(=O)n(-c2ccnc3c2cc([C@H](C)N2CC=C(c4c(C)cc(C(=O)N5CCC(CN6CCN(c7ccc(N[C@H]8CCC(=O)NC8=O)cc7F)C[C@H]6C)CC5)cc4F)CC2)n3C)cc1F` (single isomer, unassigned) [Example 2g29] was run?
**A.** 3.6 nM

**Q.** For `CNc1cc(=O)n(-c2ccnc3c2cc(CN2CCC(c4c(F)cc(C(=O)N5CCC(CN6CCN(c7ccc(N[C@H]8CCC(=O)NC8=O)cc7F)CC6)CC5)cc4F)CC2)n3C)cc1F` (single isomer, unassigned) [Example 2g34], which DC50 is on record?
**A.** 15.1 nM

**Q.** How did the DC50 turn out when `CNc1ccn(-c2ccnc3c2cc([C@H](C)N2CC=C(c4c(C)cc(C(=O)N5CCC(CN6CCN(c7ccc(N[C@@H]8CCC(=O)NC8=O)cc7F)CC6)CC5)cc4F)CC2)n3C)c(=O)c1` (single isomer, unassigned) [Example 2g38] was run?
**A.** 2.4 nM

**Q.** Which DC50 does the source give for `CNc1ccn(-c2ccnc3c2cc([C@H](C)N2CC=C(c4c(C)cc(C(=O)N5CCC(CN6CCN(c7ccc(N[C@H]8CCC(=O)NC8=O)cc7F)CC6)CC5)cc4F)CC2)n3C)c(=O)c1` (single isomer, unassigned) [Example 2g39] here?
**A.** 5 nM

**Q.** How did the DC50 turn out when `CNc1ccn(-c2ccnc3c2cc([C@H](C)N2CCC(c4c(C)cc(C(=O)N5CCC(CN6CCN(c7ccc(N[C@@H]8CCC(=O)NC8=O)cc7F)CC6)CC5)cc4F)CC2)n3C)c(=O)c1` (single isomer, unassigned) [Example 2g44] was run?
**A.** 12.2 nM

**Q.** For `CNc1ccn(-c2ccnc3c2cc([C@H](C)N2CCC(c4c(C)cc(C(=O)N5CCC(CN6CCN(c7ccc(N[C@H]8CCC(=O)NC8=O)cc7F)CC6)CC5)cc4F)CC2)n3C)c(=O)c1` (single isomer, unassigned) [Example 2g45], which DC50 is on record?
**A.** 10.7 nM

**Q.** Which DC50 does the source give for `CNc1ccn(-c2ccnc3c2cc([C@H](C)N2CC=C(c4c(C)cc(C(=O)N5CCC(CN6CCN(c7ccc(N[C@@H]8CCC(=O)NC8=O)cc7F)C[C@H]6C)CC5)cc4F)CC2)n3C)c(=O)c1` (single isomer, unassigned) [Example 2g47] here?
**A.** 3.3 nM

**Q.** `CNc1ccn(-c2ccnc3c2cc([C@H](C)N2CC=C(c4c(C)cc(C(=O)N5CCC(CN6CCN(c7ccc(N[C@H]8CCC(=O)NC8=O)cc7F)C[C@H]6C)CC5)cc4F)CC2)n3C)c(=O)c1` (single isomer, unassigned) [Example 2g48] was tested. Which DC50 did it give?
**A.** 2.4 nM

**Q.** How did the DC50 turn out when `CNc1ccn(-c2ccnc3c2cc(CN2CCC(c4c(C)cc(C(=O)N5CCC(CN6CCN(c7ccc(N[C@@H]8CCC(=O)NC8=O)cc7F)CC6)CC5)cc4F)CC2)n3C)c(=O)c1` (single isomer, unassigned) [Example 2g61] was run?
**A.** 14.8 nM

**Q.** How did the DC50 turn out when `CNc1ccn(-c2ccnc3c2cc(CN2CCC(c4c(C)cc(C(=O)N5CCC(CN6CCN(c7ccc(N[C@H]8CCC(=O)NC8=O)cc7F)CC6)CC5)cc4F)CC2)n3C)c(=O)c1` (single isomer, unassigned) [Example 2g62] was run?
**A.** 18 nM

**Q.** How did the DC50 turn out when `CNc1cc(=O)n(-c2ccnc3c2cc([C@H](C)N2CC=C(c4c(C)cc(C(=O)N5CCC(CN6CCN(c7ccc(N[C@H]8CCC(=O)NC8=O)cc7F)CC6)CC5)cc4F)CC2)n3C)cc1F` (single isomer, unassigned) [Example 2g92] was run?
**A.** 5.9 nM

**Q.** For `CNc1cc(=O)n(-c2ccnc3c2cc([C@H](C)N2CC=C(c4c(C)cc(C(=O)N5CCC(CN6CCN(c7ccc(N[C@@H]8CCC(=O)NC8=O)cc7F)CC6)CC5)cc4F)CC2)n3C)cc1F` (single isomer, unassigned) [Example 2g93], which DC50 is on record?
**A.** 7.2 nM

**Q.** Which DC50 does the source give for `CNc1ccn(-c2ccnc3c2cc([C@H](C)N2CC=C(c4c(C)cc(C(=O)N5CCC(CN6CCN(c7ncc(N[C@H]8CCC(=O)NC8=O)cc7F)C[C@@H]6C)CC5)cc4F)CC2)n3C)c(=O)c1` (single isomer, unassigned) [Example 2g95] here?
**A.** 11 nM

**Q.** How did the DC50 turn out when `CNc1ccn(-c2ccnc3c2cc([C@H](C)N2CC=C(c4c(C)cc(C(=O)N5CCC(CN6CCN(c7ncc(N[C@@H]8CCC(=O)NC8=O)cc7F)C[C@@H]6C)CC5)cc4F)CC2)n3C)c(=O)c1` (single isomer, unassigned) [Example 2g96] was run?
**A.** 14 nM

**Q.** `CNc1ccn(-c2ccnc3c2cc([C@H](C)N2CC=C(c4c(C)cc(C(=O)N5CCC(CN6CCN(c7ccc(N[C@@H]8CCC(=O)NC8=O)cc7F)C[C@@H]6C)CC5)cc4F)CC2)n3C)c(=O)c1` (single isomer, unassigned) [Example 2g99] was tested. Which DC50 did it give?
**A.** 22.2 nM

**Q.** `CNc1ccn(-c2ccnc3c2cc([C@H](C)N2CC=C(c4c(F)cc(C(=O)N5CCC(CN6CCN(c7ccc(N[C@H]8CCC(=O)NC8=O)cc7F)CC6)CC5)cc4F)CC2)n3C)c(=O)c1` (single isomer, unassigned) [Example 2g106] was tested. Which DC50 did it give?
**A.** 7.66 nM
